Reference: patent US10590143B2, “Herbicidally active (alkynyl-phenyl)-substituted cyclic dione compounds and derivatives thereof” (Syngenta Limited, priority 2013, dated 2020)

What was measured:
Assay in all cases: Biological Example 2 glasshouse assay for herbicidal activity
Assay type in all cases: in vivo
[1] = system: Lolium perenne (LOLPE); conditions: post-emergence, 30 g/ha, 14 or 15 DAA; for pest or weed control at 30 g/ha: Lolium perenne, 360 h, 0.2% v/v X-77, read-out: percentage phytotoxicity LOLPE
Procedure: (§1) Seeds of a variety of monocotyledonous and dicotyledonous test plants are sown in standard soil in pots. The plants are cultivated for one day (for pre-emergence) or for about 12 days (range=10-13 days) (for post-emergence) under controlled conditions in a glasshouse (warm climate species at 24/18° C., cool climate species at 20/16° C., both at day/night; 16 hours light; 65% humidity).
(§2) An “instant formulation”, known as the “IF50”, containing 50 g/litre (i.e. 5% w/v) of the “technical” (i.e. unformulated) active ingredient is prepared by dissolving the active ingredient in a mixture of organic solvents and emulsifier, details of which are provided in the Table below. This IF50 is then mixed with a small, variable amount of acetone to aid dissolution, before addition of a 0.2% v/v aqueous solution of the adjuvant X-77 (which is a mixture of alkyl aryl polyoxyethylene glycols and free fatty acids in isopropanol, CAS Registry number 11097-66-8), as the aqueous diluent, to form an aqueous spray solution which contains a predetermined concentration of the active ingredient (which varies depending on the application rate of the active ingredient to the plants) and 0.2% v/v of the adjuvant X-77. This aqueous spray solution is then sprayed onto the plants, after one day's cultivation (for pre-emergence) or after about 12 days' cultivation (for post-emergence).
(§3) The test plants are then grown on, in a glasshouse (greenhouse) under controlled conditions (at either 24/18° C. or 20/16° C. (day/night) as mentioned above; 16 hours light; 65% humidity) and are watered twice daily. Either 14 or 15 days after application of the herbicide (14 or 15 DAA) (for post-emergence), or 20 days after application of the herbicide (20 DAA) (for pre-emergence), the test plants are evaluated visually, and an assessed percentage phytotoxicity score is given for each herbicidal application on each plant species (where 100%=total damage to plant; 0%=no damage to plant).
(§4) Some of the typical test plants are as follows: • Cool climate crop plants: Triticum aestivum (TRZAW, winter wheat), Brassica napus (BRSNN, rape, also called oilseed rape or rapeseed), Beta vulgaris (BEAVA, sugarbeet). • Warm climate crop plants: Glycine max (GLXMA, soybean). • Cool climate (“cool season”) grassy monocotyledonous weeds: Alopecurus myosuroides (ALOMY), Avena fatua (AVEFA), Lolium perenne (LOLPE), Poa annua (POAAN), Bromus tectorum (BROTE). • Warm climate (“warm season”) grassy monocotyledonous weeds: Setaria faberi (SETFA), SORVU (Sorghum bicolor (L.) Moench ssp. Bicolor, or Sorghum vulgare Pers.), Digitaria sanguinalis (DIGSA), Echinochloa crus-galli (ECHCG), Brachiaria plantaginea (BRAPL); Zea mays (ZEAMX, corn, maize, e.g. volunteer corn).

[2] = system: Triticum aestivum (TRZAW, winter wheat); conditions: post-emergence, 360 h, 30 g/ha, 14 or 15 DAA, 0.2% v/v X-77, read-out: percentage phytotoxicity TRZAW
Procedure: as §1, §2, §3, §4

[3] = system: Echinochloa crus-galli (ECHCG); conditions: Echinochloa crus-galli, post-emergence, 360 h, 30 g/ha, 14 or 15 DAA, 0.2% v/v X-77, read-out: percentage phytotoxicity ECHCG
Procedure: as §1, §2, §3, §4

[4] = system: Alopecurus myosuroides (ALOMY); conditions: post-emergence, 360 h, 30 g/ha, 14 or 15 DAA, 0.2% v/v X-77, read-out: percentage phytotoxicity ALOMY
Procedure: as §1, §2, §3, §4

[5] = system: Setaria faberi (SETFA); conditions: post-emergence, 360 h, 30 g/ha, 14 or 15 DAA, 0.2% v/v X-77, read-out: percentage phytotoxicity SETFA
Procedure: as §1, §2, §3, §4

[6] = system: Brachiaria plantaginea (BRAPL); conditions: Urochloa plantaginea, post-emergence, 360 h, 30 g/ha, 14 or 15 DAA, 0.2% v/v X-77, read-out: percentage phytotoxicity BRAPL
Procedure: as §1, §2, §3, §4

[7] = system: Glycine max (GLXMA, soybean); conditions: post-emergence, 360 h, 30 g/ha, 14 or 15 DAA, 0.2% v/v X-77, read-out: percentage phytotoxicity GLXMA
Procedure: as §1, §2, §3, §4

[8] = system: Brassica napus (BRSNN, rape); conditions: Brassica napus, 360 h; post-emergence, 30 g/ha, 14 or 15 DAA, 0.2% v/v X-77; read-out: percentage phytotoxicity BRSNN
Procedure: as §1, §2, §3, §4

[9] = system: Digitaria sanguinalis (DIGSA); conditions: post-emergence, 360 h, 30 g/ha, 14 or 15 DAA, 0.2% v/v X-77, read-out: percentage phytotoxicity DIGSA
Procedure: as §1, §2, §3, §4

[10] = system: Avena fatua (AVEFA); conditions: post-emergence, 360 h, 30 g/ha, 14 or 15 DAA, 0.2% v/v X-77, read-out: percentage phytotoxicity AVEFA
Procedure: as §1, §2, §3, §4

[11] = system: Zea mays (ZEAMX, corn, maize, e.g. volunteer corn); conditions: Zea mays, post-emergence, 360 h, 30 g/ha, 14 or 15 DAA, 0.2% v/v X-77, read-out: percentage phytotoxicity ZEAMX
Procedure: as §1, §2, §3, §4

[12] = system: SORVU (Sorghum bicolor (L.) Moench ssp. Bicolor, or Sorghum vulgare Pers.); conditions: post-emergence, 360 h, 30 g/ha, 14 or 15 DAA, 0.2% v/v X-77, read-out: percentage phytotoxicity SORVU
Procedure: as §1, §2, §3, §4

[13] = system: Beta vulgaris (BEAVA, sugarbeet); conditions: post-emergence, 360 h, 30 g/ha, 14 or 15 DAA, 0.2% v/v X-77, read-out: percentage phytotoxicity BEAVA
Procedure: as §1, §2, §3, §4

Cc1cc(C)c(C2C(=O)C3CCC(C3)C2=O)c(C)c1 (stereo not drawn) [Compound X9, reference compound]
pest or weed control at 30 g/ha [1]: 0%
plant injury at 30 g/ha [2]: 0%
pest or weed control at 30 g/ha [3]: 20%
pest or weed control at 30 g/ha [4]: 0%
pest or weed control at 30 g/ha [5]: 70%
pest or weed control at 30 g/ha [6]: 70%
plant injury at 30 g/ha [7]: 0%
plant injury at 30 g/ha [8]: 0%
pest or weed control at 30 g/ha [9]: 30%
pest or weed control at 30 g/ha [10]: 0%

CCc1cc(C)cc(CC)c1C1C(=O)C2CCC(C2)C1=O (stereo not drawn) [Compound X10, reference compound]
pest or weed control at 30 g/ha [1]: 70%
percentage phytotoxicity LOLPE ([1]; 0.2% v/v X-77): 70%
pest or weed control at 30 g/ha [11]: 80%
pest or weed control at 30 g/ha [12]: 60%
pest or weed control at 30 g/ha [4]: 80%
pest or weed control at 30 g/ha [5]: 100%
plant injury at 30 g/ha [13]: 0%
pest or weed control at 30 g/ha [6]: 80%
plant injury at 30 g/ha [7]: 0%
plant injury at 30 g/ha [8]: 0%
pest or weed control at 30 g/ha [9]: 100%
